Values quoted from earlier work in patent publication EP2133696A1, “Very low concentrations of troponin I or T for assessing a cardiovascular risk with respect to the administration of anti-inflammatory drugs” (Spanuth, Eberhardt, priority 2008, dated 2009).

## CS(=O)(=O)c1ccc(C2=C(c3ccccc3)C(=O)OC2)cc1 [Rofecoxib]
25 mg rofecoxib compared with a placebo, after 18 months of follow-up
  additional cardiovascular incidents (myocardial infarction, stroke): 16 per 1,000 treated patients
25 mg rofecoxib versus placebo, early post-observation phase
  blood pressure levels: higher blood pressure levels
APPROVE study, led to premature discontinuation, patients without any recognisable cardiovascular risk
  rise in the rate of serious thromboembolic incidents: 3.9 times
